Reference: PMC9695041, “The Anti-Breast Cancer Activity of Dihydroartemisinin-5-methylisatin Hybrids Tethered via Different Carbon Spacers” (Molecules, 2022)

Assays:
[1] = tested on: MDA-MB-231/ADR breast cancer cell line; experiment: MTT antiproliferative assay, MDA-MB-231/ADR; type: cell-based; conditions: MDA-MB-231/ADR (drug-resistant)
Procedure: (§1) The antiproliferative activity and cytotoxicity of DHA-5-methylisatin hybrids 6a–c and 7a–m against MCF-7, MDA-MB-231, MCF-7/ADR, and MDA-MB-231/ADR (Purchased from Procell) breast cancer cell lines as well as MCF-10A were assessed by 3-(4,5-dimethylthiazol-2-yl)-2,5-diphenyltetrazolium bromide (MTT) assay.
(§2) MCF-7, MDA-MB-231, MCF-7/ADR, and MDA-MB-231/ADR breast cancer cell lines (2 × 10^3) were plated in each well of a 96-well plate and were allowed to adhere and spread for 24 h. The dihydroartemisinin-5-methylisatin hybrids 6a–e and 7a–m were added to a final concentration of 100 µM, and the cells were cultured for 24 h at 37 °C. 3-(4,5-dimethyl-2-thiazolyl)-2,5-diphenyltetrazolium bromide (MTT) solution (10 µL) was added to each well, and the cultures were incubated for an additional 4 h. A further 100 µL of MTT solution was added and incubation continued overnight. The absorbance at 540 nm was determined in each well with a 96-well plate reader. The growth of the treated cells was compared with that of untreated cells.

[2] = tested on: normal MCF-10A breast cells
Procedure: as §1, §2

[3] = tested on: MDA-MB-231 breast cancer cell line; experiment: MTT antiproliferative assay, MDA-MB-231; type: cell-based; conditions: for IC50: MDA-MB-231, MTT assay
Procedure: as §1, §2

[4] = tested on: MCF-7/ADR breast cancer cell line; experiment: MTT antiproliferative assay, MCF-7/ADR; type: cell-based; conditions: MCF-7/ADR (drug-resistant)
Procedure: as §1, §2

[5] = tested on: MCF-7 breast cancer cell line; experiment: MTT antiproliferative assay, MCF-7; type: cell-based; conditions: for IC50: MCF-7, MTT assay
Procedure: as §1, §2

[6] = MTT cytotoxicity assay, MCF-10A; conditions: human, MCF-10A normal breast cells
Procedure: as §1, §2

Molecule	IC50 [1]	IC50 [2]	IC50 [3]	IC50 [4]	IC50 [5]	IC50 ([1]; Homo sapiens)	IC50 at 24 h [6]	SI2: selectivity index IC50(MCF-10A)/IC50(MDA-MB-231) [3]	IC50 ([4]; Homo sapiens, NCI/ADR-RES)	IC50 ([5]; Homo sapiens, MCF7)	SI1: selectivity index IC50(MCF-10A)/IC50(MCF-7) [5]	IC50 ([3]; Homo sapiens)
3-((Benzyloxy)imino)-6-methyl-1-(3-(((3R,5aS,6R,8aS,9R,12R,12aR)-3,6,9-trimethyldecahydro-12H-3,12-epoxy[1,2]dioxepino[4,3-i]isochromen-10-yl)oxy)propyl)indolin-2-one [Hybrid 7l]	> 100 µM	> 100 µM	> 100 µM	> 100 µM	> 100 µM	–	–	–	–	–	–	–
3-(Methoxyimino)-1-(4-(((3R,5aS,6R,8aS,9R,12R,12aR)-3,6,9-trimethyldecahydro-12H-3,12-epoxy[1,2]dioxepino[4,3-i]isochromen-10-yl)oxy)butyl)indolin-2-one [Hybrid 7h]	80.3 µM	> 100 µM	73.9 µM	77.5 µM	85.2 µM	–	–	–	–	–	–	–
COc1cccc2c1C(=O)c1c(O)c3c(c(O)c1C2=O)C[C@@](O)(C(=O)CO)C[C@@H]3O[C@H]1C[C@H](N)[C@H](O)[C@H](C)O1 [ADR, Adriamycin, reference compound]	–	–	–	–	–	> 100 µM	68.8 µM	14.76	> 100 µM	18.9 µM	3.64	–
C[C@@H]1CC[C@H]2[C@@H](C)C(=O)O[C@@H]3O[C@@]4(C)CC[C@@H]1[C@]32OO4 [ART, Artemisinin]	–	–	–	–	–	> 100 µM	> 100 µM	>1.38	> 100 µM	–	>1.14	–
C[C@H]1[C@@H](O)O[C@@H]2O[C@@]3(C)CC[C@H]4[C@H](C)CC[C@@H]1[C@@]24OO3 [DHA, Dihydroartemisinin]	–	–	–	–	–	–	> 100 µM	>1.43	79.1 µM	–	>1.36	–
Cc1ccc2c(c1)C(=O)C(=O)N2CCOC1O[C@@H]2O[C@@]3(C)CC[C@H]4[C@H](C)CC[C@@H]([C@H]1C)[C@@]24OO3 (stereo partly drawn) [Hybrid 6a, 5-Methyl-1-(2-(((3R,5aS,6R,8aS,9R,12R,12aR)-3,6,9-trimethyldecahydro-12H-3,12-epoxy[1,2]dioxepino[4,3-i]isochromen-10-yl)oxy)ethyl)indoline-2,3-dione]	–	–	–	–	–	26.9 µM	> 100 µM	>3.43	25.3 µM	31.7 µM	>3.15	29.1 µM
Cc1ccc2c(c1)C(=O)C(=O)N2CCCOC1O[C@@H]2O[C@@]3(C)CC[C@H]4[C@H](C)CC[C@@H]([C@H]1C)[C@@]24OO3 (stereo partly drawn) [Hybrid 6b, 5-Methyl-1-(3-(((3R,5aS,6R,8aS,9R,12R,12aR)-3,6,9-trimethyldecahydro-12H-3,12-epoxy[1,2]dioxepino[4,3-i]isochromen-10-yl)oxy)propyl)indoline-2,3-dione]	–	–	–	–	–	> 100 µM	> 100 µM	–	87.4 µM	> 100 µM	–	> 100 µM
Cc1ccc2c(c1)C(=O)C(=O)N2CCCCOC1O[C@@H]2O[C@@]3(C)CC[C@H]4[C@H](C)CC[C@@H]([C@H]1C)[C@@]24OO3 (stereo partly drawn) [Hybrid 6c, 5-Methyl-1-(4-(((3R,5aS,6R,8aS,9R,12R,12aR)-3,6,9-trimethyldecahydro-12H-3,12-epoxy[1,2]dioxepino[4,3-i]isochromen-10-yl)oxy)butyl)indoline-2,3-dione]	–	–	–	–	–	44.5 µM	> 100 µM	>2.36	49.9 µM	59.7 µM	>1.67	42.3 µM
Cc1ccc2c(c1)C(=NO)C(=O)N2CCCOC1O[C@@H]2O[C@@]3(C)CC[C@H]4[C@H](C)CC[C@@H]([C@H]1C)[C@@]24OO3 (stereo partly drawn) [Hybrid 7b, 3-(Hydroxyimino)-5-methyl-1-(3-(((3R,5aS,6R,8aS,9R,12R,12aR)-3,6,9-trimethyldecahydro-12H-3,12-epoxy[1,2]dioxepino[4,3-i]isochromen-10-yl)oxy)propyl)indolin-2-one]	–	–	–	–	–	36.4 µM	> 100 µM	>2.34	28.7 µM	30.3 µM	>3.30	42.6 µM
Cc1ccc2c(c1)C(=NO)C(=O)N2CCCCOC1O[C@@H]2O[C@@]3(C)CC[C@H]4[C@H](C)CC[C@@H]([C@H]1C)[C@@]24OO3 (stereo partly drawn) [Hybrid 7c, 3-(Hydroxyimino)-5-methyl-1-(4-(((3R,5aS,6R,8aS,9R,12R,12aR)-3,6,9-trimethyldecahydro-12H-3,12-epoxy[1,2]dioxepino[4,3-i]isochromen-10-yl)oxy)butyl)indolin-2-one]	–	–	–	–	–	28.5 µM	> 100 µM	>3.83	23.4 µM	22.1 µM	>4.52	26.7 µM
Cc1ccc2c(c1)C(=NNC(N)=O)C(=O)N2CCOC1O[C@@H]2O[C@@]3(C)CC[C@H]4[C@H](C)CC[C@@H]([C@H]1C)[C@@]24OO3 (stereo partly drawn) [Hybrid 7d, 2-(5-Methyl-2-oxo-1-(2-(((3R,5aS,6R,8aS,9R,12R,12aR)-3,6,9-trimethyldecahydro-12H-3,12-epoxy[1,2]dioxepino[4,3-i]isochromen-10-yl)oxy)ethyl)indolin-3-ylidene)hydrazine-1-carboxamide]	–	–	–	–	–	21.6 µM	> 100 µM	>5.07	33.3 µM	27.2 µM	>3.67	19.7 µM
Cc1ccc2c(c1)C(=NNC(N)=O)C(=O)N2CCCCOC1O[C@@H]2O[C@@]3(C)CC[C@H]4[C@H](C)CC[C@@H]([C@H]1C)[C@@]24OO3 (stereo partly drawn) [Hybrid 7e, 2-(5-Methyl-2-oxo-1-(4-(((3R,5aS,6R,8aS,9R,12R,12aR)-3,6,9-trimethyldecahydro-12H-3,12-epoxy[1,2]dioxepino[4,3-i]isochromen-10-yl)oxy)butyl)indolin-3-ylidene)hydrazine-1-carboxamide]	–	–	–	–	–	34.5 µM	> 100 µM	>3.20	42.1 µM	39 µM	>2.56	31.2 µM
Cc1ccc2c(c1)C(=NNC(N)=S)C(=O)N2CCCOC1O[C@@H]2O[C@@]3(C)CC[C@H]4[C@H](C)CC[C@@H]([C@H]1C)[C@@]24OO3 (stereo partly drawn) [Hybrid 7f, 2-(5-Methyl-2-oxo-1-(3-(((3R,5aS,6R,8aS,9R,12R,12aR)-3,6,9-trimethyldecahydro-12H-3,12-epoxy[1,2]dioxepino[4,3-i]isochromen-10-yl)oxy)propyl)indolin-3-ylidene)hydrazine-1-carbothioamide]	–	–	–	–	–	51.1 µM	> 100 µM	>2.07	36.4 µM	46.7 µM	>2.14	48.2 µM
Cc1ccc2c(c1)C(=NNC(N)=S)C(=O)N2CCCCOC1O[C@@H]2O[C@@]3(C)CC[C@H]4[C@H](C)CC[C@@H]([C@H]1C)[C@@]24OO3 (stereo partly drawn) [Hybrid 7g, 2-(5-Methyl-2-oxo-1-(4-(((3R,5aS,6R,8aS,9R,12R,12aR)-3,6,9-trimethyldecahydro-12H-3,12-epoxy[1,2]dioxepino[4,3-i]isochromen-10-yl)oxy)butyl)indolin-3-ylidene)hydrazine-1-carbothioamide]	–	–	–	–	–	40.6 µM	> 100 µM	>2.84	30.3 µM	28.9 µM	>3.46	35.1 µM
CCON=C1C(=O)N(CCOC2O[C@@H]3O[C@@]4(C)CC[C@H]5[C@H](C)CC[C@@H]([C@H]2C)[C@@]35OO4)c2ccc(C)cc21 (stereo partly drawn) [Hybrid 7i, 3-(Ethoxyimino)-5-methyl-1-(2-(((3R,5aS,6R,8aS,9R,12R,12aR)-3,6,9-trimethyldecahydro-12H-3,12-epoxy[1,2]dioxepino[4,3-i]isochromen-10-yl)oxy)ethyl)indolin-2-one]	–	–	–	–	–	72.7 µM	> 100 µM	>1.42	61.8 µM	69.3 µM	>1.44	70.4 µM
Cc1ccc2c(c1)C(=NOCc1ccccc1)C(=O)N2CCOC1O[C@@H]2O[C@@]3(C)CC[C@H]4[C@H](C)CC[C@@H]([C@H]1C)[C@@]24OO3 (stereo partly drawn) [Hybrid 7k, 3-((Benzyloxy)imino)-5-methyl-1-(2-(((3R,5aS,6R,8aS,9R,12R,12aR)-3,6,9-trimethyldecahydro-12H-3,12-epoxy[1,2]dioxepino[4,3-i]isochromen-10-yl)oxy)ethyl)indolin-2-one]	–	–	–	–	–	> 100 µM	> 100 µM	–	> 100 µM	> 100 µM	–	> 100 µM
Cc1ccc2c(c1)C(=NOCc1ccccc1)C(=O)N2CCCCOC1O[C@@H]2O[C@@]3(C)CC[C@H]4[C@H](C)CC[C@@H]([C@H]1C)[C@@]24OO3 (stereo partly drawn) [Hybrid 7m, 3-((Benzyloxy)imino)-5-methyl-1-(4-(((3R,5aS,6R,8aS,9R,12R,12aR)-3,6,9-trimethyldecahydro-12H-3,12-epoxy[1,2]dioxepino[4,3-i]isochromen-10-yl)oxy)butyl)indolin-2-one]	–	–	–	–	–	> 100 µM	> 100 µM	–	> 100 µM	> 100 µM	–	> 100 µM
